Converted amounts (≈) assume the structure as drawn.
What was measured:
[1] = Antifouling activity against Bugula neritina larvae; assay type: functional
HeLa = test: Cytotoxicity against human HeLa cells incubated for 48 hrs by MTT assay; assay type: functional, cell-based
[2] = Toxicity against Bugula neritina larvae
[3] = Selectivity index, ratio of cytotoxic LC50 to antifouling EC50 in Bugula neritina larvae

SMILES	EC50 [1]	IC50 (HeLa)	LC50 [2]	Selectivity Index [3]
CC(=O)O[C@H]1O[C@H](CCC(C)C)[C@@H](C)[C@H]2CC[C@H]3[C@@H]4CCC5=CC(=O)C=C[C@]5(C)[C@H]4CC[C@]123	> 25 mg/L	19.6 mg/L (≈ 43.1 µM)	> 25 mg/L	–
CC(=O)O[C@@H]1O[C@H](CCC(C)C)[C@@H](C)[C@H]2CC[C@H]3[C@@H]4CCC5=CC(=O)C=C[C@]5(C)[C@H]4CC[C@]123	> 25 mg/L	10.1 mg/L (≈ 22.2 µM)	> 25 mg/L	–
CC(C)CC[C@H]1OC(O)[C@]23CC[C@H]4[C@@H](CCC5=CC(=O)C=C[C@@]54C)[C@@H]2CC[C@@H]3[C@@H]1C (mixture of isomers) [NEPHTHOACETAL]	2.5 mg/L	12.3 mg/L	> 25 mg/L	>10
